Source: patent US20030153056A1, “Glycosyltransferase proteins” (priority 2000, published 2003)

T1: Brainiac β1-3-N-acetylglucosaminyltransferase (Drosophila melanogaster, UniProt Q24157)
T1 construct: The full coding region of Brainiac was prepared by PCR using genomic DNA; made in house; host or cells: High Five insect cells (baculovirus vector pVL1393); microsomal fractions
T1 sequence (Q24157 1-325): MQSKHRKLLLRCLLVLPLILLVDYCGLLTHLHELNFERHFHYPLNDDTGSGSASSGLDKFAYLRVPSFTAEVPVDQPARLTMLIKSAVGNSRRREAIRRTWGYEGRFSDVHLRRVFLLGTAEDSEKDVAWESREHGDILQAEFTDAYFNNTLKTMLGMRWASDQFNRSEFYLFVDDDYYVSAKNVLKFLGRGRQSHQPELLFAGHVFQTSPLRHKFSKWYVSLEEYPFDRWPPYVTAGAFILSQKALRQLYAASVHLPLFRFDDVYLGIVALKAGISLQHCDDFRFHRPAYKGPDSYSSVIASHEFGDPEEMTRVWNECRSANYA


What was measured:
[1] = target: T1, Brainiac β1-3-N-acetylglucosaminyltransferase; test: Substrate specificities of Brainiac β1-3-N-acetylglucosaminyltransferase (acceptor panel, microsomal preparations); format: biochemical; conditions: microsomes of pVL-Brainiac infected High Five cells, background of irrelevant construct subtracted, donor UDP-GlcNAc
Notch = target: T2, Notch (Drosophila melanogaster, UniProt P07207); test: Delta-AP binding to Notch transfected S2 cells; format: cell-based
T2 construct: expressed in transfected cells; host or cells: Drosophila Schneider S2 cells, transient transfection, pRmHa3
Description: Cell culture and Binding assays: cDNAs for expression in Schneider S2 cells were cloned into pRmHa3. Cells were transiently transfected by the CaPO4 method using 6-8 μg of DNA per well in 6 well plates. Expression was induced by addition of 0.7 mM CuSO4 for 2 days. Conditioned medium was collected from Notch-AP and Delta-AP transfected cells 2 days after induction. AP activity was adjusted to normalise activity levels of Notch-AP or Delta-AP expressed with or without Fringe. Binding was performed as described in Cheng and Flanagan, 1994. In brief, AP-containing supernatants were supplemented with 0.1% NaN3, and incubated 90 min at room temperature. Cells were washed 5 times in HBSS containing 0.05% BSA and 0.1% azide, and lysed in 10 mM Tris pH 8, 1% Triton-X100. Endogenous AP was inactivated by heat treatment for 10 min 60° C. and the lysates clarified by centrifugation. AP activity was measured in 1M Diethanolamine, 1 mM MgCl2, 5 mM para-nitrophenyl phosphate. Bound AP activity was quantified in 96 well plates using a microplate reader and Micromanager software (BioRad). An additional replicate of each transfection was prepared for immunoblot analysis. Lysates were prepared separately for Immunoblot analysis to allow inclusion of protease inhibitors which are not used in the binding assay. To measure interaction of Delta-AP with transiently transfected S2 cells, bound AP activity was quantified in an enzymatic colour reaction. Cells transfected with empty vector were used as a control. […] AP activity is shown in mOD units/minute in cell extracts (replicate experiments are shown in this figure). In this experiment Fringe stimulated binding by over 50 fold. […] However, the assay allows measurement of Fringe-dependent stimulation of Delta-AP binding.

T2 sequence (P07207 53-2703): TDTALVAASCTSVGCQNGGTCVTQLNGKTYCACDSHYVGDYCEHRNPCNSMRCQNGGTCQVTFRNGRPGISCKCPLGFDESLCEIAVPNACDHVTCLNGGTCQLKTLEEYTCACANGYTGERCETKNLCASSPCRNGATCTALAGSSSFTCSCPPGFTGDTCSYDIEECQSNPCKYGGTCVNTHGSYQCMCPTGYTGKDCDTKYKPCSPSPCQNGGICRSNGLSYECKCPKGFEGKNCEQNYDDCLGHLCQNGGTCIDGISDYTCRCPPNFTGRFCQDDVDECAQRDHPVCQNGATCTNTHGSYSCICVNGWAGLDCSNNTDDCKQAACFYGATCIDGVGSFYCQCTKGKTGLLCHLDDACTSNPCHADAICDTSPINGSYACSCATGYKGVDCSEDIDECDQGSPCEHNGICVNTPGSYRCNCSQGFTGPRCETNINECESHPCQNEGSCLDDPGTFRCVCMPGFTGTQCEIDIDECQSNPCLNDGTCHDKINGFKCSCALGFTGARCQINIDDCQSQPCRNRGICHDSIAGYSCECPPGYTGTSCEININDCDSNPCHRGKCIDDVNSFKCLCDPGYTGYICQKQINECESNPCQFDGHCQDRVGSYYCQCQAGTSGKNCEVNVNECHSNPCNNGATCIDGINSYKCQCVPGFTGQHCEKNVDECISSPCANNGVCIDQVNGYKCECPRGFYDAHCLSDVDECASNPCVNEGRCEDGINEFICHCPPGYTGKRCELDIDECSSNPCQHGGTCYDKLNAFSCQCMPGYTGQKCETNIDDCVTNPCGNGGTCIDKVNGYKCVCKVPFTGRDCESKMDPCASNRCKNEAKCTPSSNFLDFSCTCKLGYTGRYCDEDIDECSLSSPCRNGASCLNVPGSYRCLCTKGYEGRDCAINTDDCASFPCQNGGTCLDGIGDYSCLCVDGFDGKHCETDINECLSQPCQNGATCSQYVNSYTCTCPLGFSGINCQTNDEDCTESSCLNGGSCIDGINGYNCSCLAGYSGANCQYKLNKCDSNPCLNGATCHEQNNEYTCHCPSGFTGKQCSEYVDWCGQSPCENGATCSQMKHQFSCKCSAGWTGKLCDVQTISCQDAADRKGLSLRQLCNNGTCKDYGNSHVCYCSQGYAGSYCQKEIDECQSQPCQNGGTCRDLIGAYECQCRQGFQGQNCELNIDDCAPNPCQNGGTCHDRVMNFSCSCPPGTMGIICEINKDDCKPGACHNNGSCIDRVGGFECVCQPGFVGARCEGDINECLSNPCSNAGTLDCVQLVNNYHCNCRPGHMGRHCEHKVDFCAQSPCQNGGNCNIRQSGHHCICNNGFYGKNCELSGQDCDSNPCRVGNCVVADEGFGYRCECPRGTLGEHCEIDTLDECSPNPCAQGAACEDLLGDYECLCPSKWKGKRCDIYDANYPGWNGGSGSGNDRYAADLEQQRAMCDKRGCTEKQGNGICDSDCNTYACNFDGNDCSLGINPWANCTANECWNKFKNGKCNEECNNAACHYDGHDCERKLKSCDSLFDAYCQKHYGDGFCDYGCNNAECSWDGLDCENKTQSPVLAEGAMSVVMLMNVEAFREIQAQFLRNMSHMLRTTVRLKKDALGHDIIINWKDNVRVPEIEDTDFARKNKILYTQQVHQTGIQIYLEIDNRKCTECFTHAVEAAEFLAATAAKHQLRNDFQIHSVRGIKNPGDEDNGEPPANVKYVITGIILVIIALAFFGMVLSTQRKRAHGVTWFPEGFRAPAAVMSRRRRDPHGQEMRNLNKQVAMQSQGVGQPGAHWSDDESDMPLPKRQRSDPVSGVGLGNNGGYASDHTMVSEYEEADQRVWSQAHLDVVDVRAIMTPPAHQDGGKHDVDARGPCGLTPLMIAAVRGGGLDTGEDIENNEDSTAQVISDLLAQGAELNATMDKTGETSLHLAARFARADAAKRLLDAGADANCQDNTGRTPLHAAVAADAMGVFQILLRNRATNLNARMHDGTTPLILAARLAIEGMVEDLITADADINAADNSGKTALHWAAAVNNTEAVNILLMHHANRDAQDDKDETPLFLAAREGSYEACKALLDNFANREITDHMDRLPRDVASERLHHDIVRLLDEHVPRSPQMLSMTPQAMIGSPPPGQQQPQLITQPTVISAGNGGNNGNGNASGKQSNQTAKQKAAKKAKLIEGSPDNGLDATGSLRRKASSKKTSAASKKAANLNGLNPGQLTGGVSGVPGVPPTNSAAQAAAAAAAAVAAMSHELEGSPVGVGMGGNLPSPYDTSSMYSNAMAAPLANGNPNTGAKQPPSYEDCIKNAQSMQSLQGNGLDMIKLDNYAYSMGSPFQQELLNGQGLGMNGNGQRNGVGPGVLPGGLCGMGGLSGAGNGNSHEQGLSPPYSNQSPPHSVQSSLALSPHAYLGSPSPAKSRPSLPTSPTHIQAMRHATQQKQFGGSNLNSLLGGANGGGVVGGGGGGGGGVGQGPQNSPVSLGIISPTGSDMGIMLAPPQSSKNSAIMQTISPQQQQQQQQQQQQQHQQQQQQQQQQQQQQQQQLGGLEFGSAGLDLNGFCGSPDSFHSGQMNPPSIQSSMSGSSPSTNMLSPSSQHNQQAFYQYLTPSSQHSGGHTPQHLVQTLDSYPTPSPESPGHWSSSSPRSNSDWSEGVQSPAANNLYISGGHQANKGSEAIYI

Molecule | Brainiac activity with substrate ([1]; substrate 2 mM) | Brainiac activity with substrate ([1]; substrate 20 mM) | Delta-AP binding, in words (Notch; Notch-expressing cells co-cultured with Fringe-expressing cells for two days (secreted Fringe)) | Effect on Delta-AP binding, in words (Notch; co-expressed with Notch in S2 cells) | Stimulation of Delta-AP binding (Notch; co-expressed with Notch in S2 cells, FIG. 3b)
Cc1cc(=O)oc2cc(O[C@H]3O[C@H](C)[C@H](O)[C@H](O)[C@H]3O)ccc12 [D-Fucα1-MeUmb] | 0.00 nmol/h/mg | 0.00 nmol/h/mg | – | – | –
C[C@H]1OC(O)[C@H](O)[C@@H](O)[C@H]1O (stereo partly drawn) [D-Fuc] | 0.01 nmol/h/mg | 0.01 nmol/h/mg | – | – | –
CO[C@H]1O[C@H](CO)[C@@H](O[C@H]2O[C@H](CO)[C@@H](O)[C@H](O)[C@@H]2O)[C@H](O)[C@@H]1O [Manα1-4Manα1-Me] | 0.00 nmol/h/mg | 0.00 nmol/h/mg | – | – | –
C[C@@H]1O[C@H](Oc2ccc([N+](=O)[O-])cc2)[C@@H](O)[C@H](O)[C@@H]1O [L-Fucβ1-pNph] | 0.01 nmol/h/mg | 0.02 nmol/h/mg | – | – | –
CC(=O)N[C@@H]1C(O)O[C@H](CO)[C@@H](O[C@@H]2O[C@H](CO)[C@H](O)[C@H](O)[C@H]2O)[C@@H]1O (stereo partly drawn) [Galβ1-4ManNAc] | 0.10 nmol/h/mg | 0.42 nmol/h/mg | – | – | –
Galβ1-4GlcNAc | 0.03 nmol/h/mg | 0.12 nmol/h/mg | – | – | –
CO[C@H]1O[C@H](CO)[C@@H](O)[C@H](O[C@H]2O[C@H](CO)[C@@H](O)[C@H](O)[C@@H]2O)[C@@H]1O [Manα1-3Manα1-Me] | 0.00 nmol/h/mg | 0.00 nmol/h/mg | – | – | –
CO[C@@H]1O[C@H](CO)[C@@H](O)[C@H](O)[C@@H]1O [Manβ1-Me] | 1.46 nmol/h/mg | 2.74 nmol/h/mg | – | – | –
OC[C@H]1O[C@@H](O[C@H]2[C@H](O)[C@@H](O)C(O)O[C@@H]2CO)[C@H](O)[C@@H](O)[C@H]1O (stereo partly drawn) [Galβ1-4Glc] | 0.42 nmol/h/mg | 3.08 nmol/h/mg | – | – | –
Cc1cc(=O)oc2cc(O[C@H]3O[C@H](CO)[C@@H](O)[C@H](O)[C@@H]3O)ccc12 [Manα1-MeUmb] | 0.11 nmol/h/mg | 0.17 nmol/h/mg | – | – | –
OC[C@H]1O[C@@H](O[C@@H]2[C@H](O)[C@@H](O)C(O)O[C@@H]2CO)[C@H](O)[C@@H](O)[C@H]1O (stereo partly drawn) [Galβ1-4Gal] | 0.00 nmol/h/mg | 0.00 nmol/h/mg | – | – | –
OCC1OC(OCC2OC(OCC3OC(O)C(O)C(OC4OC(CO)C(O)C(O)C4O)C3O)C(O)C(OC3OC(CO)C(O)C(O)C3O)C2O)C(O)C(O)C1O (stereo not drawn) [Manα1-3(Manα1-6)Manα1-6(Manα1-3)Man] | 0.09 nmol/h/mg | 0.45 nmol/h/mg | – | – | –
CC(=O)N[C@H]1[C@H](O[C@H]2[C@@H](O)[C@@H](CO)O[C@@H](O[C@H]3[C@H](O)[C@@H](O)C(O)O[C@@H]3CO)[C@@H]2O)O[C@H](CO)[C@@H](O[C@@H]2O[C@H](CO)[C@H](O)[C@H](O)[C@H]2O)[C@@H]1O (mixture of isomers) [lacto-N-neo-tetraose] | 0.03 nmol/h/mg | – | – | – | –
COC1OC(CO)C(O)C(O)C1O (stereo not drawn) [Manα1 -Me] | 0.36 nmol/h/mg | 0.61 nmol/h/mg | – | – | –
Cc1cc(=O)oc2cc(O[C@@H]3O[C@H](CO)[C@@H](O)[C@H](O)[C@@H]3O)ccc12 [Manβ1-MeUmb] | 5.25 nmol/h/mg | 6.18 nmol/h/mg | – | – | –
C[C@@H]1OC(N)[C@@H](O)[C@H](O)[C@@H]1O (stereo partly drawn) [L-Fucosylamine] | 0.28 nmol/h/mg | 0.60 nmol/h/mg | – | – | –
CC(=O)N[C@H]1[C@H](O[C@H]2[C@@H](O)[C@@H](CO)O[C@@H](O[C@H]3[C@H](O)[C@@H](O)C(O)O[C@@H]3CO)[C@@H]2O)O[C@H](CO)[C@@H](O)[C@@H]1O[C@@H]1O[C@H](CO)[C@H](O)[C@H](O)[C@H]1O (stereo partly drawn) [lacto-N-tetraose] | 0.00 nmol/h/mg | 0.00 nmol/h/mg | – | – | –
Fringe: Drosophila Fringe protein with a single C-terminal myc-epitope tag (protein, UniProt Q24342 1-412, looked up, C-terminal myc tag) Fringe glycosyltransferase: MMSLTVLSPPQRFKRILQAMMLAVAVVYMTLLLYQSAYGYPGIQVPHSQVDALASEAVTTHRDQLLQDYVQSSTPTQPGAGAPAASPTTVIIRKDIRSFNFSDIEVSERPTATLLTELARRSRNGELLRDLSQRAVTATPQPPVTELDDIFISVKTTKNYHDTRLALIIKTWFQLARDQTWFFTDTDDHYYQEKTKGHLINTKCSQGHFRKALCCKMSAELDVFLESGKKWFCHFDDDNYVNVPRLVKLLDEYSPSVDWYLGKPSISSPLEIHLDSKNTTTNKKITFWFATGGAGFCLSRALTLKMLPIAGGGKFISIGDKIRFPDDVTMGFIIEHLLKVPLTVVDNFHSHLEPMEFIRQDTFQDQVSFSYAHMKNQWNVIKVDGFDMKTDPKRFYSLHCQLFPYFSFCPPR | – | – | Delta-AP bound at background level | large increase in Delta-AP binding | over 50 fold

Results, then the molecule that gave them:

Brainiac activity with substrate ([1]; substrate 2 mM) | Brainiac activity with substrate ([1]; substrate 20 mM) | Delta-AP binding, in words (Notch; Notch-expressing cells co-cultured with Fringe-expressing cells for two days (secreted Fringe)) | Effect on Delta-AP binding, in words (Notch; co-expressed with Notch in S2 cells) | Stimulation of Delta-AP binding (Notch; co-expressed with Notch in S2 cells, FIG. 3b) | Molecule
1.48 nmol/h/mg | 8.39 nmol/h/mg | – | – | – | OC[C@H]1O[C@@H](O[C@H]2[C@H](O)[C@H](O)C(O)O[C@@H]2CO)[C@H](O)[C@@H](O)[C@H]1O (stereo partly drawn) [Galβ1-4Man]
0.21 nmol/h/mg | 0.02 nmol/h/mg | – | – | – | O=[N+]([O-])c1ccccc1O[C@@H]1O[C@H](CO)[C@H](O)[C@H](O)[C@H]1O [Galβ1-oNph]
0.19 nmol/h/mg | 0.00 nmol/h/mg | – | – | – | Cc1cc(=O)oc2cc(O[C@@H]3O[C@H](CO)[C@H](O)[C@H](O)[C@H]3O)ccc12 [Galβ1-MeUmb]
0.15 nmol/h/mg | 0.16 nmol/h/mg | – | – | – | CO[C@H]1O[C@H](CO)[C@@H](O)[C@H](O)[C@@H]1O[C@@H]1O[C@H](CO)[C@@H](O)[C@H](O)[C@@H]1O [Manβ1-2Manα1-Me]
0.02 nmol/h/mg | 0.05 nmol/h/mg | – | – | – | CO[C@H]1O[C@H](CO[C@H]2O[C@H](CO)[C@@H](O)[C@H](O)[C@@H]2O)[C@@H](O)[C@H](O)[C@@H]1O [Manα1-6Manα1-Me]
0.00 nmol/h/mg | 0.00 nmol/h/mg | – | – | – | Cc1cc(=O)oc2cc(O[C@@H]3O[C@@H](C)[C@@H](O)[C@@H](O)[C@@H]3O)ccc12 [L-Fucα1-MeUmb]
0.04 nmol/h/mg | 0.02 nmol/h/mg | – | – | – | CC(=O)N[C@H]1[C@H](OCc2ccccc2)O[C@H](CO)[C@@H](O[C@@H]2O[C@H](CO)[C@H](O)[C@H](O)[C@H]2O)[C@@H]1O [Galβ1-4GlcNAcβ1-Bzl]
0.48 nmol/h/mg | 1.69 nmol/h/mg | – | – | – | OC[C@H]1O[C@@H](O[C@H]2[C@H](O)[C@@H](O)[C@H](OCc3ccccc3)O[C@@H]2CO)[C@H](O)[C@@H](O)[C@H]1O [Galβ1-4Glcβ1-Bzl]
0.01 nmol/h/mg | 0.08 nmol/h/mg | – | – | – | OC[C@H]1O[C@H](OC[C@H]2O[C@H](OCc3ccccc3)[C@@H](O)[C@@H](O[C@H]3O[C@H](CO)[C@@H](O)[C@H](O)[C@@H]3O)[C@@H]2O)[C@@H](O)[C@@H](O)[C@@H]1O [Manα1-6(Manα1-3)Manα1-Bzl]
